Values quoted from earlier work, collected in patent US6054469A, “Substituted tetrahydropyridine derivatives acting on 5-HT receptors” (Merck Sharp & Dohme Ltd., priority 1995, dated 2000).

Conditions: therapeutic doses

CNS(=O)(=O)Cc1ccc2[nH]cc(CCN(C)C)c2c1 [sumatriptan]
adverse events on administration to humans: adverse cardiovascular events
